Key:
wheat [1] = assay: Test A preemergence; format: in vivo, Triticum aestivum; conditions: preemergence; for Wheat plant response rating (0 to 100 scale): 125 g ai/ha, visual injury approx. 10 days after treatment
Method in brief: (§1)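 Seeds were sown in a loam soil–sand blend and given a directed soil spray preemergence; postemergence plants at 2–10 cm, one- to two-leaf stage, were sprayed with compound in non-phytotoxic solvent with surfactant. After about 10 days in a greenhouse, injury was visually rated against untreated controls (0 = no effect, 100 = complete control).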

pigweed [2] = assay: Test A postemergence; format: in vivo, Amaranthus retroflexus; conditions: Postemergence
Method in brief: as §1

ducksalad = assay: Test B flood; format: in vivo, Heteranthera limosa; conditions: 250 g ai/ha, visual rating on 0 to 100 scale (0 no effect, 100 complete control), 13 to 15 days
Method in brief: (§2)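 Flooded-pot test: compound dosed into 3 cm of standing water above soil when plants had two leaves. Visual control ratings (0–100) versus untreated plants after 13–15 d.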

sedge, umbrella = assay: Test B flood; format: in vivo, Cyperus difformis; conditions: 250 g ai/ha, visual rating on 0 to 100 scale (0 no effect, 100 complete control), 13 to 15 days
Method in brief: as §2

rice = assay: Test B flood; format: in vivo, Oryza sativa; conditions: 250 g ai/ha, visual rating on 0 to 100 scale (0 no effect, 100 complete control), 13 to 15 days
Method in brief: as §2

barnyardgrass [3] = assay: Test B flood; format: in vivo, Echinochloa crus-galli; conditions: 250 g ai/ha, visual rating on 0 to 100 scale (0 no effect, 100 complete control), 13 to 15 days
Method in brief: as §2

foxtail, giant [4] = assay: Test A postemergence; format: in vivo, Setaria faberii; conditions: Postemergence
Method in brief: as §1

morningglory [5] = assay: Test A postemergence; format: in vivo, Ipomoea spp.; conditions: Postemergence
Method in brief: as §1

pigweed [6] = assay: Test A preemergence; format: in vivo, Amaranthus retroflexus; conditions: preemergence; for Pigweed plant response rating (0 to 100 scale): 125 g ai/ha, visual injury approx. 10 days after treatment
Method in brief: as §1

corn [7] = assay: Test A preemergence; format: in vivo, Zea mays; conditions: preemergence; for Corn plant response rating (0 to 100 scale): 125 g ai/ha, visual injury approx. 10 days after treatment; for Corn plant response rating: 500 g ai/ha
Method in brief: as §1

foxtail, giant [8] = assay: Test A preemergence; format: in vivo, Setaria faberii; conditions: preemergence; for Foxtail, Giant plant response rating (0 to 100 scale): 125 g ai/ha, visual injury approx. 10 days after treatment; for Foxtail, Giant plant response rating: 500 g ai/ha
Method in brief: as §1

velvetleaf [9] = assay: Test A postemergence; format: in vivo, Abutilon theophrasti; conditions: Postemergence
Method in brief: as §1

velvetleaf [10] = assay: Test A preemergence; format: in vivo, Abutilon theophrasti; conditions: preemergence; for Velvetleaf plant response rating (0 to 100 scale): 125 g ai/ha, visual injury approx. 10 days after treatment
Method in brief: as §1

barnyardgrass [11] = assay: Test A postemergence; format: in vivo, Echinochloa crus-galli; conditions: Postemergence
Method in brief: as §1

wheat [12] = assay: Test A postemergence; format: in vivo, Triticum aestivum; conditions: Postemergence
Method in brief: as §1

corn [13] = assay: Test A postemergence; format: in vivo, Zea mays; conditions: Postemergence
Method in brief: as §1

crabgrass, large [14] = assay: Test A preemergence; format: in vivo, Digitaria sanguinalis; conditions: preemergence; for Crabgrass, Large plant response rating (0 to 100 scale): 125 g ai/ha, visual injury approx. 10 days after treatment; for Crabgrass, Large plant response rating: 500 g ai/ha
Method in brief: as §1

barnyardgrass [15] = assay: Test A preemergence; format: in vivo, Echinochloa crus-galli; conditions: preemergence; for Barnyardgrass plant response rating (0 to 100 scale, 0 is no effect, 100 is complete control): 125 g ai/ha, visual injury approx. 10 days after treatment; for Barnyardgrass plant response rating: 500 g ai/ha, 0 to 100 scale (0 no effect, 100 complete control)
Method in brief: as §1

morningglory [16] = assay: Test A preemergence; format: in vivo, Ipomoea spp.; conditions: preemergence; for Morningglory plant response rating (0 to 100 scale): 125 g ai/ha, visual injury approx. 10 days after treatment
Method in brief: as §1

crabgrass, large [17] = assay: Test A postemergence; format: in vivo, Digitaria sanguinalis; conditions: Postemergence
Method in brief: as §1

[18] = 125 g ai/ha, 0 to 100 scale, 0 no effect, 100 complete control
[19] = 500 g ai/ha, 0 to 100 scale (0 no effect, 100 complete control)
[20] = visual injury after approx. 10 days, 0 to 100 scale (0 no effect, 100 complete control)
[21] = visual injury after approx. 10 days
[22] = 500 g ai/ha, visual injury, 0 to 100 scale, approx. 10 days
[23] = visual injury, 0 to 100 scale, approx. 10 days

SMILES | Wheat plant response rating (0 to 100 scale) (wheat [1]) | Pigweed plant response rating (pigweed [2]; [18]) | Pigweed plant response rating (pigweed [2]; [19]) | Plant response rating, Ducksalad (ducksalad) | Plant response rating, Sedge, Umbrella (sedge, umbrella) | Plant response rating, Rice (rice) | Plant response rating, Barnyardgrass (barnyardgrass [3]) | Foxtail, Giant plant response rating (foxtail, giant [4]; [18]) | Foxtail, Giant plant response rating (foxtail, giant [4]; [19]) | Morningglory plant response rating (morningglory [5]; [18]) | Morningglory plant response rating (morningglory [5]; [19]) | Pigweed plant response rating (0 to 100 scale) (pigweed [6]) | Corn plant response rating (0 to 100 scale) (corn [7]) | Foxtail, Giant plant response rating (0 to 100 scale) (foxtail, giant [8]) | Velvetleaf plant response rating (velvetleaf [9]; [18]) | Velvetleaf plant response rating (velvetleaf [9]; [19]) | Velvetleaf plant response rating (0 to 100 scale) (velvetleaf [10]) | Barnyardgrass plant response rating (barnyardgrass [11]; [18]) | Barnyardgrass plant response rating (barnyardgrass [11]; [19]) | Wheat plant response rating (wheat [12]; [18]) | further results
COCc1cc(C(=O)NCC(F)(F)F)nn1Cc1cc(C(F)(F)C(F)(F)F)nn1C [Compound 225] | 0 | 0 | 0 | 55 | 50 | 0 | 0 | 10 | 60 | 10 | 60 | 20 | 0 | 20 | 20 | 30 | 0 | 10 | 30 | 0 | Corn plant response rating (corn [7]; [20]): 20; Foxtail, Giant plant response rating (foxtail, giant [8]; [20]): 70; Wheat plant response rating (wheat [12]; [19]): 0; Corn plant response rating (corn [13]; [18]): 10; Corn plant response rating (corn [13]; [19]): 30; Crabgrass, Large plant response rating (0 to 100 scale) (crabgrass, large [14]): 20; Crabgrass, Large plant response rating (crabgrass, large [14]; [20]): 90; Barnyardgrass plant response rating (0 to 100 scale, 0 is no effect, 100 is complete control) (barnyardgrass [15]): 10; Barnyardgrass plant response rating (barnyardgrass [15]; [21]): 80; Morningglory plant response rating (0 to 100 scale) (morningglory [16]): 30; Crabgrass, Large plant response rating (crabgrass, large [17]; [18]): 40; Crabgrass, Large plant response rating (crabgrass, large [17]; [19]): 70
CCc1cc(C(=O)NCC(F)(F)F)nn1Cc1cc(C(F)(F)C(F)(F)F)nn1C [Compound 227] | 10 | 100 | 100 | 100 | 95 | 0 | 80 | 70 | 90 | 70 | 100 | 90 | 0 | 70 | 40 | 100 | 30 | 40 | 80 | 20 | Corn plant response rating (corn [7]; [20]): 50; Foxtail, Giant plant response rating (foxtail, giant [8]; [20]): 100; Wheat plant response rating (wheat [12]; [19]): 70; Corn plant response rating (corn [13]; [18]): 30; Corn plant response rating (corn [13]; [19]): 70; Crabgrass, Large plant response rating (0 to 100 scale) (crabgrass, large [14]): 100; Crabgrass, Large plant response rating (crabgrass, large [14]; [20]): 100; Barnyardgrass plant response rating (0 to 100 scale, 0 is no effect, 100 is complete control) (barnyardgrass [15]): 40; Barnyardgrass plant response rating (barnyardgrass [15]; [21]): 100; Morningglory plant response rating (0 to 100 scale) (morningglory [16]): 10; Crabgrass, Large plant response rating (crabgrass, large [17]; [18]): 60; Crabgrass, Large plant response rating (crabgrass, large [17]; [19]): 90
CCCNC(=O)c1cc(CC)n(Cc2cc(C(F)(F)C(F)(F)F)nn2C)n1 [Compound 229] | 20 | 90 | 100 | 100 | 95 | 40 | 60 | 60 | 90 | 70 | 100 | 100 | 10 | 90 | 50 | 80 | 40 | 50 | 90 | 40 | Corn plant response rating (corn [7]; [20]): 50; Foxtail, Giant plant response rating (foxtail, giant [8]; [20]): 100; Wheat plant response rating (wheat [12]; [19]): 70; Corn plant response rating (corn [13]; [18]): 40; Corn plant response rating (corn [13]; [19]): 70; Crabgrass, Large plant response rating (0 to 100 scale) (crabgrass, large [14]): 100; Crabgrass, Large plant response rating (crabgrass, large [14]; [20]): 100; Barnyardgrass plant response rating (0 to 100 scale, 0 is no effect, 100 is complete control) (barnyardgrass [15]): 50; Barnyardgrass plant response rating (barnyardgrass [15]; [21]): 100; Morningglory plant response rating (0 to 100 scale) (morningglory [16]): 50; Crabgrass, Large plant response rating (crabgrass, large [17]; [18]): 50; Crabgrass, Large plant response rating (crabgrass, large [17]; [19]): 90
CCONC(=O)c1cc(C)n(Cc2ccnc(C(F)(F)F)c2)n1 [Compound 231] | 0 | 0 | 0 | 0 | 0 | 0 | 0 | 0 | 0 | 0 | 0 | 0 | 0 | 0 | 0 | 0 | 0 | 0 | 0 | 0 | Wheat plant response rating (wheat [1]; [22]): 0; Pigweed plant response rating (pigweed [6]; [22]): 0; Corn plant response rating (corn [7]; [23]): 0; Foxtail, Giant plant response rating (foxtail, giant [8]; [23]): 0; Velvetleaf plant response rating (velvetleaf [10]; [22]): 0; Wheat plant response rating (wheat [12]; [19]): 0; Corn plant response rating (corn [13]; [18]): 0; Corn plant response rating (corn [13]; [19]): 10; Crabgrass, Large plant response rating (0 to 100 scale) (crabgrass, large [14]): 0; Crabgrass, Large plant response rating (crabgrass, large [14]; [23]): 0; Barnyardgrass plant response rating (0 to 100 scale, 0 is no effect, 100 is complete control) (barnyardgrass [15]): 0; Barnyardgrass plant response rating (barnyardgrass [15]; visual injury, approx. 10 days): 0; Morningglory plant response rating (0 to 100 scale) (morningglory [16]): 0; Morningglory plant response rating (morningglory [16]; [22]): 0; Crabgrass, Large plant response rating (crabgrass, large [17]; [18]): 0; Crabgrass, Large plant response rating (crabgrass, large [17]; [19]): 10

— patent publication US20150105252A1, “SUBSTITUTED PYRAZOLES AS HERBICIDES” (E I DU PONT DE NEMOURS AND COMPANY, priority 2013, published 2015)
